The record followed here is ChEMBL document CHEMBL1201862, “PubChem BioAssay data set” (2004).

Active and inactive are the calls of the source.

For assay [1], the target named is Glycogen synthase kinase-3 beta (Homo sapiens, UniProt P49841). The experiment in a line: Inhibition of Human GSK-3 beta Activity Measured in Biochemical System Using Microfluidics - 2063-05_Inhibitor_Dose_DryPowder_Activity_Set2. [Related pubchem assays (depositor defined):AID2709].
Assay [2] addresses Glycogen synthase kinase-3 alpha (Homo sapiens, UniProt P49840). The experiment in a line: Inhibition of Human GSK-3 alpha Activity Measured in Biochemical System Using Microfluidics - 2063-06_Inhibitor_Dose_DryPowder_Activity_Set2. [Related pubchem assays (depositor defined):AID2709].
Assay [3] in a line: THP-1 cell cytotoxicity, cytotoxicity control, set 4 (AID 504911). The assay is classed as functional. The settings on record: Mycobacterium tuberculosis.
Assay [4] can be described thus: Vero cell cytotoxicity, dose response, cytotoxicity control for M. tuberculosis growth inhibitor project, Vero cells, purified and synthesized compounds, set 4 (AID 504854). The assay is classed as functional. The settings on record: Mycobacterium tuberculosis.
The target of assay [5] is Vascular endothelial growth factor receptor 1 (Homo sapiens, UniProt P17948). Type of assay: functional.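 Also: measured within a kinome-wide profiling panel, FLT1 as the panel member.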
For assay [6], the target named is Death-associated protein kinase 3 (Homo sapiens, UniProt O43293). The assay is classed as functional.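 Also: measured as one member of a kinome-wide profiling panel.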
Assay [7] concerns the target Dual specificity tyrosine-phosphorylation-regulated kinase 1A (Homo sapiens, UniProt Q13627). Type of assay: functional.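 Also: measured against DYRK1A as one member of a broad kinome profiling panel.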
The next assay deals with Aurora kinase A (Homo sapiens, UniProt O14965). Type of assay: functional.
The target of a further assay is Aurora kinase B (Homo sapiens, UniProt Q96GD4). Type of assay: functional.
Assay [8] has as its target Vascular endothelial growth factor receptor 2 (Homo sapiens, UniProt P35968). The assay is classed as functional.
Another assay deals with Melanocortin receptor 4 (Homo sapiens, UniProt P32245). The experiment in a line: MC4R antagonist potency on cAMP, dose response, cell-based, TR-FRET, biased antagonists (AID 602298).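 Also: antagonist potency against agonist-stimulated cAMP production.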 The assay is classed as functional. (In TR-FRET formats the signal depends on donor and acceptor labels being close together.)
For assay [9], the target named is T1, Microphthalmia-associated transcription factor (Homo sapiens, UniProt O75030).
T1 sequence (O75030 whole entry): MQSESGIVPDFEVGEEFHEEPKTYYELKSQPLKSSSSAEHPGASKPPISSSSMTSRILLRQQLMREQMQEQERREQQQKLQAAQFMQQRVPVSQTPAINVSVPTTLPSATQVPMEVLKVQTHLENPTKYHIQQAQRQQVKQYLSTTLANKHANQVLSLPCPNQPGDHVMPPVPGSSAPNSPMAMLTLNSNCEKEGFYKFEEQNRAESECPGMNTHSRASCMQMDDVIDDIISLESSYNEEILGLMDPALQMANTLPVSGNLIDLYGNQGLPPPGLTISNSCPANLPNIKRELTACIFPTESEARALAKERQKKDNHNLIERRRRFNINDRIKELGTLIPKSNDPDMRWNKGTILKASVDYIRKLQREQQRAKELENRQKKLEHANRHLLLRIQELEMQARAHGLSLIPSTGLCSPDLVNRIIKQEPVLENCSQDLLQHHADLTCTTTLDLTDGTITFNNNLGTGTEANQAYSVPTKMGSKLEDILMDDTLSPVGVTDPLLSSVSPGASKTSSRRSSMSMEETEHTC
As to the kind of experiment: TRPM1 promoter luciferase signal decrease, dose response, MITF inhibitor project, cell-based, SK-MEL-5, cherry-picked, set 3 (AID 493073).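 Also: SK-MEL-5 melanoma cells with luciferase driven by the MITF target TRPM1 promoter.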 The assay is classed as functional.

The nature of assay [10]: Luminescence Cell-Based Dose Retest to Confirm Inhibitors of Cancer Stem Cells. [Related pubchem assays (depositor defined):AID2717, AID2721]. Type of assay: functional. The settings on record: Homo sapiens.
Assay [11] in a line: nonselective inhibitors of cellular cAMP signaling, dose response, counter-screen for MC4R biased antagonist project, cell-based, TR-FRET cAMP detection (AID 602305).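 Also: U2OS cells stimulated with forskolin near its EC80 as the cAMP inducer; potency is for inhibition of forskolin-stimulated cAMP signaling.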 Type of assay: functional.
Another assay deals with LIM domain kinase 1 (Homo sapiens, UniProt P53667). The experiment in a line: Navigating the Kinome. Panel member name: LIMK1. Type of assay: functional.
Assay [12] concerns the target Melanin-concentrating hormone receptor 1 (Homo sapiens, UniProt Q99705). The experiment in a line: Late-stage fluorescence-based counterscreen for antagonists of the G-protein coupled receptor 7 (GPR7): cell-based dose response assay to identify antagonists of the melanin-concentrating hormone receptor 1 (MCHR1) Set 5. Type of assay: functional. A general note: Counterscreens check selectivity or assay interference.

For assay [13], the target named is Neuropeptides B/W receptor type 1 (Homo sapiens, UniProt P48145). As to the kind of experiment: GPR7 antagonist potency, late-stage follow-up, cell-based, fluorescence, dose response, set 5 (AID 588566). The assay is classed as functional.
The target in assay [14] is T2, Orexin receptor type 2 (Homo sapiens, UniProt O43614). As to the kind of experiment: Counterscreen assay for antagonists of the orexin 1 receptor (OX1R; HCRTR1): Homogeneous Time Resolved Fluorescence (HTRF)-based cell-based dose response assay for antagonists of the orexin 2 receptor (OX2R; HCRTR2), run by assay provider. Type of assay: functional.
Assay [15] deals with T3, Orexin/Hypocretin receptor type 1 (Homo sapiens, UniProt O43613). The experiment in a line: Fluorescence-based cell-based high throughput dose response assay for antagonists of the orexin 1 receptor (OX1R; HCRTR1). [Related pubchem assays (depositor defined):AID434989, AID435008, AID463079, AID485270, AID492963, AID492964, AID492965, AID493232, AID504717, AID504718]. The assay is classed as functional.

In the next assay the test system is CHO-K1. As to the kind of experiment: Counterscreen for antagonists of the orexin 1 receptor (OX1R; HCRTR1): Homogeneous time resolved fluorescence (HTRF)-based cell-based dose response assay to identify antagonists of the parental CHO-K1 cell line. [Related pubchem assays (depositor defined):AID434989, AID435008, AID463079, AID485270, AID492963, AID492964, AID492965, AID493232, AID504699, AID504701]. The assay is classed as functional. The settings on record: Cricetulus griseus.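 Also: potency for inhibition of ATP-stimulated IP1 production as antagonists.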

Assay [16] in a line: Counterscreen for antagonists of the orexin 1 receptor (OX1R; HCRTR1): Fluorescence-based cell-based high throughput dose response assay to identify antagonists of the parental CHO cell line. [Related pubchem assays (depositor defined):AID434989, AID435008, AID463079, AID485270, AID492963, AID492964, AID492965, AID493232, AID504699, AID504701]. The assay is classed as functional.

Assay [17] addresses T2, Orexin receptor type 2. As to the kind of experiment: Counterscreen assay for antagonists of the orexin 1 receptor (OX1R; HCRTR1): Fluorescence-based cell-based dose response assay for antagonists of the orexin 2 receptor (OX2R; HCRTR2), run by assay provider. Type of assay: functional.
Assay [18] concerns the target T3, Orexin/Hypocretin receptor type 1. As to the kind of experiment: Homogeneous Time Resolved Fluorescence (HTRF)-based cell-based high throughput dose response assay for antagonists of the orexin 1 receptor (OX1R; HCRTR1). [Related pubchem assays (depositor defined):AID434989, AID435008, AID463079, AID485270, AID492963, AID492964, AID492965, AID493232, AID504717, AID504718]. Type of assay: functional.

The next assay has as its target Wee1-like protein kinase (Homo sapiens, UniProt P30291). As to the kind of experiment: Navigating the Kinome. Panel member name: WEE1. The assay is classed as functional.
Assay [19] has as its target Cell division cycle 7-related protein kinase (Homo sapiens, UniProt O00311). Type of assay: functional.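 Also: value obtained from a kinome-wide kinase panel.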

T3 sequence (O43613 whole entry): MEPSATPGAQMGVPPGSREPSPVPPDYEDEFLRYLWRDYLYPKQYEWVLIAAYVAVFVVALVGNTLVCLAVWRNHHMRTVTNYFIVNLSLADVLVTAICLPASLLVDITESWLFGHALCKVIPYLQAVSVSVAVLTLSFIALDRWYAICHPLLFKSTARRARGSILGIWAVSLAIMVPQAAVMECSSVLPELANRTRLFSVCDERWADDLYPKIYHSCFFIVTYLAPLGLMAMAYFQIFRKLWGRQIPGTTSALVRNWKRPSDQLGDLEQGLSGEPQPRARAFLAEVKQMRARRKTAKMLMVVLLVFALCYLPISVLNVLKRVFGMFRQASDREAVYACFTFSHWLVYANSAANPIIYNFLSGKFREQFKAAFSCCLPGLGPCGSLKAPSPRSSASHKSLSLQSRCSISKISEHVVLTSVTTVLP
T2 sequence (O43614 whole entry): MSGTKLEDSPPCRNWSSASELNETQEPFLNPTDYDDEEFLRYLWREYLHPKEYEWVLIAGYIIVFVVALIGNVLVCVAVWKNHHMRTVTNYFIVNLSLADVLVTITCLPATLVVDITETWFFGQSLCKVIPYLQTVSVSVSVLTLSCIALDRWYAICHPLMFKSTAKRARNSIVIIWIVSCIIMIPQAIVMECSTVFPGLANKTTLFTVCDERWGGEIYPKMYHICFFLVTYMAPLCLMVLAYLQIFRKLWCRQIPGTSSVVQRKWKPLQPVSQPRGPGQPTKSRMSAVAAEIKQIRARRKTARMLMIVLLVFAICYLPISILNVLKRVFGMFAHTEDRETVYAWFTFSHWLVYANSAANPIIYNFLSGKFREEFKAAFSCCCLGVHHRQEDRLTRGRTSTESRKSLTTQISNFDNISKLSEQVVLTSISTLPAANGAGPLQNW
Death-associated protein kinase 3, sequence (O43293 whole entry): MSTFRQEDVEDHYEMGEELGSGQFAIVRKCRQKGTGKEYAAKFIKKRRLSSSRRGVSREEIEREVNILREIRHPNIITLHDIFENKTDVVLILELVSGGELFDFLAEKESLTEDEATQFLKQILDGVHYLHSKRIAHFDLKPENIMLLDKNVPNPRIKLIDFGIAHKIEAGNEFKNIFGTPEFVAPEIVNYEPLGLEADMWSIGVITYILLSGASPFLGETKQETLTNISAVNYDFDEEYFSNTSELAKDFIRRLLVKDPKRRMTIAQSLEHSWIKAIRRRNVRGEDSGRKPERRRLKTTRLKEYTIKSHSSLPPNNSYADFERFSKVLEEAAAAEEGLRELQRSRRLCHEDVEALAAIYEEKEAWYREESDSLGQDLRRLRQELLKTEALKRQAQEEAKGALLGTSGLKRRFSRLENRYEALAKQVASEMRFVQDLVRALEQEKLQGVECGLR
LIM domain kinase 1, sequence (P53667 whole entry, the tested form may be a part): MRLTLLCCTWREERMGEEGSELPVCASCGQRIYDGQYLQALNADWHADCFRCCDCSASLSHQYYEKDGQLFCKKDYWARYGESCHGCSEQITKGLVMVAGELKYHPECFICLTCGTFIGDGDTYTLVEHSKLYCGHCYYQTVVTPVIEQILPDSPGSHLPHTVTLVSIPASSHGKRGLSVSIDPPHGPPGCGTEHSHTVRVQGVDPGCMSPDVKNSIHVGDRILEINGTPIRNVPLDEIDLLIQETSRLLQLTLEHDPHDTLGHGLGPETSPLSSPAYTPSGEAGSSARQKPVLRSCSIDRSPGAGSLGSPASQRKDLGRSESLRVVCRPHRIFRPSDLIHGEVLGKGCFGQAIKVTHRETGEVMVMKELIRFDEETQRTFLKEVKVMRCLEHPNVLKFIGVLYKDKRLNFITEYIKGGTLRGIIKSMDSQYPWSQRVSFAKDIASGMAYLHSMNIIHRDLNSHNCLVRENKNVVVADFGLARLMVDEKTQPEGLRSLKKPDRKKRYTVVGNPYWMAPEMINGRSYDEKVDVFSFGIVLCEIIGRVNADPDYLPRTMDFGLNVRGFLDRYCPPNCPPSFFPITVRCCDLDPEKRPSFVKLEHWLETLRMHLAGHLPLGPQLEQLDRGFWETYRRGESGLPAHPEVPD
Cell division cycle 7-related protein kinase, sequence (O00311 whole entry): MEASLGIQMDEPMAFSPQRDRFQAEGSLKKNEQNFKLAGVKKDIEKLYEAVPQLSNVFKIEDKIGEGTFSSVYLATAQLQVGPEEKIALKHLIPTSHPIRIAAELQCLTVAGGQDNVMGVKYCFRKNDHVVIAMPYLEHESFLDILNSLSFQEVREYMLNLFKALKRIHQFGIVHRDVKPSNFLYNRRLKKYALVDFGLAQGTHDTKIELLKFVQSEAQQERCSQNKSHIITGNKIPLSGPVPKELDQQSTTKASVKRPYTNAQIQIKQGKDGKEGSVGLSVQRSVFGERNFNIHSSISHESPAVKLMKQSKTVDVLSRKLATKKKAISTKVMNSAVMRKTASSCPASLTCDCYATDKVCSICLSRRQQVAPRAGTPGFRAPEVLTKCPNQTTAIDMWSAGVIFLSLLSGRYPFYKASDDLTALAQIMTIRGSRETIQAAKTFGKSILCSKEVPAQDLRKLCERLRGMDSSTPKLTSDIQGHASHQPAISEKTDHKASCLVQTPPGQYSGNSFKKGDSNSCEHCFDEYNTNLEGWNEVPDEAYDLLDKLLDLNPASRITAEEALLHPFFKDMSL
Melanocortin receptor 4, sequence (P32245 whole entry): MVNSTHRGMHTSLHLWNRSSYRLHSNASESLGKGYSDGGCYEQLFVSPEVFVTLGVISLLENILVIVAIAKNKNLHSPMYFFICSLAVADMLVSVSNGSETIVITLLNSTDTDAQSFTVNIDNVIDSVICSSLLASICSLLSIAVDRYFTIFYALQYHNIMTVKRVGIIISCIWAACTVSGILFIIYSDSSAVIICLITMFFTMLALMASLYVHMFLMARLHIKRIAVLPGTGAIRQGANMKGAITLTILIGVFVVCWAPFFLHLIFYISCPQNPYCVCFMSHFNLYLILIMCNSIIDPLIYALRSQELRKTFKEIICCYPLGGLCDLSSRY
Melanin-concentrating hormone receptor 1, sequence (Q99705 whole entry): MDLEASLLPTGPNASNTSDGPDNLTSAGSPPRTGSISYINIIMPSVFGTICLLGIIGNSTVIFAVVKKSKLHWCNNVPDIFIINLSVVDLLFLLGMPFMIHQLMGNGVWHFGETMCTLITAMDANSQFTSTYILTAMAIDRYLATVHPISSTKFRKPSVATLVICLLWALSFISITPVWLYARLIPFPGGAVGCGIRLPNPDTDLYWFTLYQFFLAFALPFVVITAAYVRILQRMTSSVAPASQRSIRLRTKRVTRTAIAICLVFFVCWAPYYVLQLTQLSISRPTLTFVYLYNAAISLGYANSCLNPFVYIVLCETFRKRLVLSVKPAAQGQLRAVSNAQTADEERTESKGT
Aurora kinase A, sequence (O14965 whole entry): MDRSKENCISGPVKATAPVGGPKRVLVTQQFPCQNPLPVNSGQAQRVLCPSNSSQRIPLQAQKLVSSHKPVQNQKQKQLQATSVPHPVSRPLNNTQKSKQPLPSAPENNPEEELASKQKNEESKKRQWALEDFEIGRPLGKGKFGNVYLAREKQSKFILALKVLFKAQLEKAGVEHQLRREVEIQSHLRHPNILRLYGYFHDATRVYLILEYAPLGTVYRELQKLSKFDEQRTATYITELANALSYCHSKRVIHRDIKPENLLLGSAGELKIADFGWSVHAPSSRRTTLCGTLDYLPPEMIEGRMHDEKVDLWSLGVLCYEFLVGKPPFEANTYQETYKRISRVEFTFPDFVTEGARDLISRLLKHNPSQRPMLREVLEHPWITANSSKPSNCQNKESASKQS
Wee1-like protein kinase, sequence (P30291 whole entry): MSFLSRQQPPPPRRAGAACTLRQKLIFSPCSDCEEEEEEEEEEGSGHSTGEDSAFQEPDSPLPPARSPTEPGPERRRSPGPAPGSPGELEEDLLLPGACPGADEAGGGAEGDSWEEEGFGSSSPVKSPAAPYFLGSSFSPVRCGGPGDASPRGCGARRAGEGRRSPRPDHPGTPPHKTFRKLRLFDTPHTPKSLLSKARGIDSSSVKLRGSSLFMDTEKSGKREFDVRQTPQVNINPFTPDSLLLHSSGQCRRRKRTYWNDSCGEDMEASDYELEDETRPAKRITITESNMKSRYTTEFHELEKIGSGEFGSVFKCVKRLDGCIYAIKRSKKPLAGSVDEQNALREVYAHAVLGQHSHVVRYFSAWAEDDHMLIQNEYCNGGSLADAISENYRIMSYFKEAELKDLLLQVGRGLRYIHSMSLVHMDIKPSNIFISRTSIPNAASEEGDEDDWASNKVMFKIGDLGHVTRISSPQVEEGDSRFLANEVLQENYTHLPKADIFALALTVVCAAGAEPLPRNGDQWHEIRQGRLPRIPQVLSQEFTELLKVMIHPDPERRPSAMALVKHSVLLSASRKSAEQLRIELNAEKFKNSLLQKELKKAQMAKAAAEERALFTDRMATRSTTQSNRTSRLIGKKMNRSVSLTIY
Aurora kinase B, sequence (Q96GD4 whole entry): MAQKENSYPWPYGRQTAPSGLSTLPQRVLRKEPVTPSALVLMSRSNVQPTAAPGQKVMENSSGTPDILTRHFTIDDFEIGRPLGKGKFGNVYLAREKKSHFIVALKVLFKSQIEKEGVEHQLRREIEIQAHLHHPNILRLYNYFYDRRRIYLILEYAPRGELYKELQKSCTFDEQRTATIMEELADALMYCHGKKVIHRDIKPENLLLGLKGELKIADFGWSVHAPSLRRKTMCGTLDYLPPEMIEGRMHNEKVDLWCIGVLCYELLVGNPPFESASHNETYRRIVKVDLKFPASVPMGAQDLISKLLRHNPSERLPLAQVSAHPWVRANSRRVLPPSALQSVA
Neuropeptides B/W receptor type 1, sequence (P48145 whole entry): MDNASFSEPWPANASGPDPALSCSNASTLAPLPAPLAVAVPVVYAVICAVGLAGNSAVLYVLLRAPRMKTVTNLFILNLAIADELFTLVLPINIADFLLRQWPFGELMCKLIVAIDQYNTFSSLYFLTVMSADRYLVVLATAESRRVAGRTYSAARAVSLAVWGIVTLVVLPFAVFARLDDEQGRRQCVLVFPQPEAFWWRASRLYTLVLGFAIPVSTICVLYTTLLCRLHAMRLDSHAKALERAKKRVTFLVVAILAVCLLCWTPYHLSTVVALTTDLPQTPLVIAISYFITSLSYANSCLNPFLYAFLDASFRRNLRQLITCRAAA

One may read the AC50 as the midpoint of the concentration-response curve, whichever way the signal moves. Turning to `O=C(Nc1ccsc1C(=O)NC1CCCCC1)c1ccc(F)cc1`, the results for the AC50 in assay [1] and in [2] were 6.28 µM (active) and 24.9 µM (active), respectively.
What is called CC50 is the concentration that lowers cell viability or growth by half. Regarding `O=C(CSc1nc2ccccc2c(=O)[nH]1)NC1CCCC1`, the CC50 in [3] and in assay [4] was > 100 µM (active) in each case.
For orientation: Ki means a measure of affinity in units of concentration, obtained from inhibition or displacement. Regarding `O=c1sn(-c2ccc3c(c2)OCO3)c(=O)n1Cc1ccccc1`, the Ki was 2 µM (active) in assay [5], 3.16 µM (active) in [6] and 1.26 µM (active) in [7].
In the case of `CCS(=O)(=O)Nc1ccc2c(c1)C(=NO)c1ccccc1-2`, the inhibition constant Ki is 0.631 µM (active) on Aurora kinase A, 0.0316 µM (active) at Aurora kinase B and 3.16 µM (active) in assay [8].
As a reminder, the IC50 is the concentration that gives 50% inhibition. Consider `CCOC(=O)C(=Cc1ccc(-n2ccnc2)cc1)C(=O)OCC`, for which the IC50 (on Melanocortin receptor 4; in [11]) was > 64.6 µM (inactive) in each case. Also, the concentration at half-maximal activity (AC50) in assay [9] is 9.38 µM (active); in assay [10] it was 2.95 µM (active).
`CCc1ccc(NC(=O)c2cnn3c(-c4ccccc4)ccnc23)cc1`: the inhibitory constant (Ki) at LIM domain kinase 1 was 3.16 µM (active).
Regarding `CCOC(=O)C(C#N)c1c(Cl)cnn(Cc2cccc3ccccc23)c1=O` (stereo not given), the half-maximal inhibitory concentration (IC50) was 7.76 µM (active) in assay [12] and 0.571 µM (active) in [13].
Take `Cc1ccc([C@@H]2CC=C(C(=O)O)[C@H](c3cccc(Cl)c3)N2S(=O)(=O)c2ccccc2C)cc1`: the IC50 on Orexin receptor type 2 [14] is 0.67 µM (active); in assay [15], 4.6 µM (active); in the assay on CHO-K1, > 66.2 µM (inactive); in assay [16] it was 18.7 µM (inactive); at Orexin receptor type 2 [17], 3.9 µM (active); in [18], 0.601 µM (active).
For `Fc1ccc(Nc2ncnc(Nc3ccc4[nH]ncc4c3)n2)cc1`, the Ki at Wee1-like protein kinase is > 3.16 µM (inactive); in [19] it was 0.126 µM (active).
